The values that follow come from patent US20060210497A1, “Novel resorcinol derivatives” (Unilever Home & Personal Care USA, Division Of Conopco, Inc., priority 2005, published 2006).

The target of one assay is Mushroom tyrosinase. Nature of the assay: Mushroom tyrosinase assay. In kind it is biochemical. The note with it: for IC50: L-DOPA 0.5 mM, tyrosinase 0.1 mg/ml, phosphate pH 7.0, room temperature; for potency of tyrosinase inhibition, compared in words: cyclohexyl methyl resorcinol compared with ethyl resorcinol. The procedure: Mushroom Tyrosinase Assay Mushroom tyrosinase inhibition is indicative of reduction in melanin synthesis, thereby showing skin lightening effect. Reagents: • Assay buffer: phosphate (100 mM, pH 7.0) • Mushroom tyrosinase stock solution (Sigma-Aldrich, Batch # 023K7024): 0.2 mg/ml in assay buffer • L-DOPA stock solution: 1.05 mM in assay buffer • Test compound stock solutions: 10 mM in DMSO Assay Conditions: • Mushroom tyrosinase: 0.1 mg/ml in assay buffer • L-DOPA: 0.5 mM in assay buffer • Test compounds: various concentrations, 2.5% final [DMSO] • Temperature: room temperature Procedure: […] The reaction is started by adding mushroom tyrosinase (100 uL of stock solution) into each well and the absorbance is monitored at 490 nm over a time period of 30 sec to 2 min. The initial reaction velocity in the presence or absence of test compounds is calculated ([…] nm/ min) and the % inhibition of test compounds is calculated using the following equation: [formula] where v0 is the initial reaction velocity in the absence of compound, v is the slope of the reaction in the absence of mushroom tyrosinase and vi is the slope of the reaction in the presence of test compound. The data (% inhibition vs. [test compound]) is fitted using data analysis software and the concentration of test compound at 50% inhibition (IC50) is determined from the fitted data. The IC50 value refers to the skin lightener concentration that results in 50% tyrosinase inhibition relative to the control (with a goal being obtaining maximum tyrosinase inhibition at minimum concentration).

The test system of another assay is human sebocytes. Description: Sebocyte assay (14C-acetate incorporation, sebocyte lipid synthesis). In kind it is cell-based. The procedure:
Sebocyte Assay Procedure:
Secondary cultures of human sebocytes obtained from an adult […] were grown in 96-well tissue culture plates (Packard) until three days post-confluence. Sebocyte growth medium consisted of Clonetics Keratinocyte Basal Medium (KBM) supplemented with 14 ug/ml bovine pituitary extract, 0.4 ug/ml hydrocortisone, 5 ug/ml insulin, 10 ng/ml epidermal growth factor, 1.2×10^−10 M cholera toxin, 100 units/ml penicillin, and 100 ug/ml streptomycin. All cultures were incubated at 37° C. in the presence of 7.5% CO2. Medium was changed three times per week.
On the day of experimentation, the growth medium was removed and the sebocytes washed three times with sterile Dulbecco's Modified Eagle Medium (DMEM; phenol red free). Fresh DMEM was added to each sample (triplicates) with 2-microliters of test agent solubilized in ethanol. Controls consisted of addition of ethanol alone. Each plate was returned to the incubator for 20-hours followed by the addition of ^14C-acetate buffer (5 mM final concentration, 56 mCi/mmol specific activity). Sebocytes were returned to the incubator for 4-hours, after which, each culture was rinsed 3-times with phosphate buffered saline to remove unbound label. Radioactive label remaining in the sebocytes was determined using a Packard TopCount scintillation counter. Statistical significance (p value) was calculated using student's t-test. Phenol Red, a known sebum suppressive agent, was employed as a positive control.

Each structure is given as a SMILES string.

The term IC50 denotes the point on the concentration scale where inhibition reaches its midpoint. On to `CCc1ccc(O)cc1O` [4-ethyl resorcinol (ER), 4-ethyl resorcinol, reference compound], for which, at Mushroom tyrosinase, the IC50 stood at 1.1 µM and the “potency of tyrosinase inhibition, compared in words” value is given as “comparable potency”.

Take `Oc1ccc(CC2CCCCC2)c(O)c1` [CHMR, 4-cyclohexylmethyl resorcinol]: the activity at 10 µM in the assay on human sebocytes (Homo sapiens, 10 uM test agent, 20 h incubation then 4 h 14C-acetate label, read-out: % of Control (ethanol)) stood at 98.9%. In addition, the activity at 100 µM in the assay on human sebocytes (Homo sapiens, 100 uM test agent, 20 h incubation then 4 h 14C-acetate label, read-out: % of Control (ethanol)) was found to be 69.3%. The “reduction in sebocyte lipid synthesis as compared to the vehicle control” value in the assay on human sebocytes (concentration on the order of about 100 micro-molar) is recorded as “statistically significant reduction”. Further, on Mushroom tyrosinase, the IC50 worked out at 0.95 µM and the “potency of tyrosinase inhibition, compared in words” value is “comparable potency”.

For `O=S1(=O)OC(c2ccc(O)cc2)(c2ccc(O)cc2)c2ccccc21` [Phenol Red, reference compound], the activity at 28 µM in the assay with human sebocytes (Homo sapiens, 28 uM test agent, 20 h incubation then 4 h 14C-acetate label, read-out: % of Control (ethanol)) came to 84.4%. For the same compound, the activity at 280 µM with human sebocytes (Homo sapiens, 280 uM test agent, 20 h incubation then 4 h 14C-acetate label, read-out: % of Control (ethanol)) worked out at 45.9%.
